From PubChem BioAssay (NCI) come the findings set out here.

Among the test systems are MDA-MB-435; HT29 colon; SF-539 CNS; UACC-257 melanoma; HOP-62 NSCLC; M14 melanoma; CAKI-1 renal; 786-0 renal; RXF 393 renal; NCI-H226 lung.
Assay in all cases: NCI-60 cell line screen, 48 h

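48-hour exposure; five concentrations; linearly interpolated endpoints. At the GI50, growth is halved. TGI marks complete inhibition of growth.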 A value given as a limit tells only on which side of the number the result lay.

Consider `CCC1(CC)C(=O)N(C(=O)c2cc(OC)c(OC)c(OC)c2)N(C(=O)c2cc(OC)c(OC)c(OC)c2)C1=O`, for which the TGI with MDA-MB-435, in the assay on HT29 colon, in the assay with SF-539 CNS, with UACC-257 melanoma, with HOP-62 NSCLC and in the assay with M14 melanoma was greater than 50 µM each time. The TGI in the assay on CAKI-1 renal, with 786-0 renal, in the assay with RXF 393 renal and with NCI-H226 lung was greater than 50 µM each time.

For the compound `Cc1ccc(C)c(COCCOCn2cc(N3CCOCC3)c(=O)[nH]c2=O)c1`, the TGI in the assay with MDA-MB-435, in the assay on SF-539 CNS, with UACC-257 melanoma, with M14 melanoma, in the assay on CAKI-1 renal and with 786-0 renal was greater than 100 µM each time. Besides, the TGI in the assay on RXF 393 renal and in the assay on NCI-H226 lung was greater than 100 µM each time.

`C[C@H]1[C@H](C)CC[C@]2(C(=O)OC3OC(CO)C(O)C(O)C3O)CC[C@]3(C)C(=CC[C@@H]4[C@@]5(C)C[C@@H](O)[C@@H]6OC(=O)c7cc(O)c(O)c(O)c7-c7c(cc(O)c(O)c7O)C(=O)OC[C@@]6(CO)[C@@H]5CC[C@]43C)[C@H]12` (some centres undefined): the TGI with MDA-MB-435 is 37.2 µM; in the assay with HT29 colon, greater than 57.9 µM; with SF-539 CNS it was greater than 100 µM; with UACC-257 melanoma, greater than 100 µM; in the assay with HOP-62 NSCLC, greater than 100 µM; in the assay with M14 melanoma it was greater than 100 µM. The TGI was greater than 100 µM in the assay on CAKI-1 renal, greater than 53.7 µM in the assay with 786-0 renal, greater than 100 µM in the assay on RXF 393 renal and greater than 100 µM in the assay with NCI-H226 lung.

Take `C=C(C)[C@H]1CC23C(=O)[C@@](C)(C[C@H]2C1(C)C)C(=O)C(C(=O)C(C)C)=C3O`: the TGI with MDA-MB-435 came out at 31.3 µM; in the assay with HT29 colon, 26.4 µM; in the assay on UACC-257 melanoma, 62.3 µM; in the assay with HOP-62 NSCLC it was 40.4 µM; in the assay with M14 melanoma, 31.4 µM; with CAKI-1 renal, 55.3 µM. Also, the figures for the TGI in the assay on 786-0 renal, in the assay with RXF 393 renal and in the assay with NCI-H226 lung were 35 µM, 29 µM and 30.3 µM, respectively.

As for `CCOC(=O)c1csc(NC(=O)CCN2CCN(C)CC2)n1`, the TGI with MDA-MB-435, in the assay with HT29 colon, in the assay with SF-539 CNS, in the assay on UACC-257 melanoma, in the assay with HOP-62 NSCLC and in the assay with M14 melanoma was greater than 100 µM throughout. The TGI with CAKI-1 renal, with RXF 393 renal and with NCI-H226 lung was greater than 100 µM in each case.

Take `c1ccc2c(c1)cc1ccc3cccc4ccc2c1c34`: the TGI with MDA-MB-435, in the assay on HT29 colon, in the assay on SF-539 CNS, with UACC-257 melanoma, in the assay with HOP-62 NSCLC and with M14 melanoma was greater than 100 µM in each case. Besides, the TGI in the assay on CAKI-1 renal, in the assay on 786-0 renal, with RXF 393 renal and in the assay with NCI-H226 lung was greater than 100 µM each time.

As for `Cc1cccc2c1CC(Cc1ccccc1C(=O)O)C2=O` (centres undefined), the TGI with MDA-MB-435, in the assay with HT29 colon, with SF-539 CNS, with UACC-257 melanoma, with HOP-62 NSCLC and in the assay on M14 melanoma was greater than 100 µM in each case. Further, the TGI in the assay with CAKI-1 renal, in the assay on 786-0 renal, in the assay with RXF 393 renal and with NCI-H226 lung was greater than 100 µM each time.

On to `CSc1ncc2c(n1)-c1ccccc1OC2NC1CC1` (centres undefined), for which the TGI in the assay with MDA-MB-435 is greater than 100 µM; in the assay with HT29 colon it was greater than 100 µM; in the assay on SF-539 CNS, greater than 100 µM; in the assay with UACC-257 melanoma, greater than 100 µM; with M14 melanoma it was greater than 100 µM; with CAKI-1 renal, 86.3 µM. The TGI in the assay on 786-0 renal, in the assay with RXF 393 renal and in the assay with NCI-H226 lung was greater than 100 µM in each case.

On to `CCN(CC)CCCCNc1c2ccc(Cl)cc2nc2ccc(OC)cc12`, for which the GI50 in the assay with MDA-MB-435 was 1.05 µM; with HT29 colon, 0.141 µM; in the assay on SF-539 CNS it was 1.19 µM; with UACC-257 melanoma it was 1.8 µM; with HOP-62 NSCLC it was 0.401 µM; with M14 melanoma, 1.15 µM. For the same compound, the GI50 with CAKI-1 renal was 1.14 µM; with RXF 393 renal, 0.381 µM; in the assay on NCI-H226 lung, 1.32 µM. Besides, the TGI in the assay with MDA-MB-435 amounted to 2.31 µM; with HT29 colon, 1.27 µM; with SF-539 CNS it was 2.73 µM; in the assay on UACC-257 melanoma, 3.91 µM; in the assay with HOP-62 NSCLC it was 2.89 µM; in the assay on M14 melanoma, 2.58 µM. The TGI in the assay with CAKI-1 renal worked out at 3.76 µM; in the assay with RXF 393 renal, 1.78 µM; in the assay with NCI-H226 lung it was 3.35 µM.

Consider `COC1(CC[C@H](C)COC2OC(CO)C(O)C(O)C2O)O[C@H]2C[C@H]3[C@@H]4CC=C5C[C@@H](OC6OC(CO)C(OC7OC(C)C(O)C(O)C7O)C(O)C6OC6OC(C)C(O)C(O)C6O)CC[C@]5(C)[C@H]4CC[C@]3(C)[C@H]2[C@@H]1C` (some centres undefined), for which the TGI in the assay with MDA-MB-435 stood at 5.3 µM; with HT29 colon, 6.8 µM; in the assay with SF-539 CNS, 4.05 µM; in the assay on UACC-257 melanoma it was 28.7 µM; in the assay on HOP-62 NSCLC, 4.09 µM; in the assay with CAKI-1 renal, 3.26 µM. Also, the results for the TGI with 786-0 renal, with RXF 393 renal and in the assay with NCI-H226 lung were 5.57 µM, 18.4 µM and 31.7 µM, respectively.

As for `CC1(C)OCC(C2OC(C)(C)OC2[C@H]2O[C@@]3(O)[C@H]4[C@H](C=CC[C@@H]42)[C@@H](OCc2ccccc2)[C@H](OCc2ccccc2)[C@H]3OCc2ccccc2)O1` (some centres undefined), the TGI in the assay with MDA-MB-435 is greater than 100 µM; in the assay with HT29 colon it was 71.3 µM; in the assay with SF-539 CNS it was greater than 100 µM; in the assay with UACC-257 melanoma, greater than 100 µM; in the assay on HOP-62 NSCLC it was greater than 100 µM; in the assay with M14 melanoma it was greater than 100 µM. Also, the TGI in the assay with CAKI-1 renal was greater than 100 µM; with 786-0 renal, greater than 100 µM; in the assay with RXF 393 renal it was 82.1 µM; with NCI-H226 lung, greater than 100 µM.

As to `O=c1c2cc([N+](=O)[O-])ccc2oc2nc3n(c(=O)c12)CCCS3`, the TGI with MDA-MB-435, in the assay with SF-539 CNS, in the assay on UACC-257 melanoma, with HOP-62 NSCLC, in the assay on M14 melanoma and with CAKI-1 renal was greater than 100 µM in each case. The TGI in the assay with 786-0 renal, in the assay on RXF 393 renal and with NCI-H226 lung was greater than 100 µM each time.

With `Cc1cc(S(=O)(=O)N=C2Nc3cccc4cccc(c34)N2)c(S)cc1Cl`, the TGI in the assay on MDA-MB-435, in the assay with SF-539 CNS, in the assay with UACC-257 melanoma, in the assay on M14 melanoma, in the assay with CAKI-1 renal and in the assay on 786-0 renal was greater than 100 µM throughout. Moreover, the TGI with RXF 393 renal and with NCI-H226 lung was greater than 100 µM each time.
